Experimental data: ChEMBL document CHEMBL1151180, “Madhucosides A and B, protobassic acid glycosides from Madhuca indica with inhibitory activity on free radical release from phagocytes” (J Nat Prod, 2004)
Values after ≈ are worked out from the molar mass of the structure shown.

Columns and labels:
Neutrophil = test: Inhibition of hypochlorous production in PMA-stimulated human neutrophils by luminol-enhanced chemiluminescence assay; assay type: functional, cell-based
[1] = Inhibition of superoxide production in PMNCs by NBT reduction assay; assay type: functional
[2] = Inhibition of superoxide production in PMNCs at 200 ug/mL by NBT reduction assay; assay type: functional

Structure (SMILES) | IC50 (Neutrophil) [µg/mL] | IC50 [1] [µg/mL] | inhibition at 200 µg/mL [2] [%]
CC(C)=C[C@H]1C[C@](C)(O)[C@H]2[C@H]3CC[C@@H]4[C@@]5(C)CC[C@H](O[C@@H]6O[C@H](CO)[C@@H](O)[C@H](O[C@@H]7O[C@H](CO)[C@@H](O)[C@H](O)[C@H]7O)[C@H]6O[C@@H]6O[C@@H](CO)[C@H](O)[C@H]6O)C(C)(C)[C@@H]5CC[C@@]4(C)[C@@]34CO[C@@]2(C4)O1 [BACOSIDE A3] | 19.8 | – | –
O=C1O[C@H]([C@@H](O)CO)C(O)=C1O [ASCORBIC ACID] | – | 14.1 (≈ 80.1 µM) | –
C[C@@H]1O[C@@H](O[C@H]2[C@H](O)[C@@H](O[C@@H]3OC[C@@H](O)[C@H](O)[C@H]3O)[C@H](O[C@@H]3[C@@H](O)[C@H](C)O[C@@H](O[C@H]4[C@H](OC(=O)[C@]56CCC(C)(C)C[C@@H]5C5=CC[C@@H]7[C@@]8(C)C[C@H](O)[C@H](O)[C@@](C)(CO[C@@H]9O[C@H](CO)[C@@H](O)[C@H](O)[C@H]9O[C@@H]9OC[C@](O)(CO)[C@H]9O)[C@@H]8[C@H](O)C[C@@]7(C)[C@]5(C)CC6)OC[C@H](O)[C@@H]4O)[C@@H]3O)O[C@@H]2CO)[C@H](O)[C@H](O)[C@H]1O | 144 | – | 16
O=c1c(O)c(-c2ccc(O)c(O)c2)oc2cc(O)cc(O)c12 [QUERCETIN] | – | 111 (≈ 367 µM) | –
